Experimental data: PubChem BioAssay (NCI)
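1) Cells in 96-well plates. 2) Compound, 48 h, 5 concentrations. 3) Linear interpolation between surrounding doses. 4) Unreached endpoint = highest concentration. Here, GI50 denotes the concentration required for 50% inhibition of growth. The concentration for full growth arrest is given as TGI.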

Columns and labels:
Test in all cases: DTP human tumour cell line panel, 48 h
[1] = tested on: A498 renal
[2] = tested on: HOP-62 NSCLC
[3] = tested on: KM12 colon
[4] = tested on: MCF7 breast
[5] = tested on: MDA-MB-435
[6] = tested on: MOLT-4 leukemia
[7] = tested on: NCI-H522 lung
[8] = tested on: NCI/ADR-RES ovarian
[9] = tested on: PC-3 prostate
[10] = tested on: SF-295 CNS
[11] = tested on: SK-MEL-28 melanoma
[12] = tested on: SNB-19 CNS
[13] = tested on: SW-620 colon
[14] = tested on: TK-10 renal
[15] = tested on: U251 CNS
[16] = tested on: UACC-257 melanoma
[17] = tested on: UACC-62 melanoma
[18] = tested on: HOP-92 NSCLC
[19] = tested on: LOX IMVI melanoma

Row | Compound | TGI [1] [µM] | TGI [2] [µM] | TGI [3] [µM] | TGI [4] [µM] | TGI [5] [µM] | TGI [6] [µM] | TGI [7] [µM] | TGI [8] [µM] | TGI [9] [µM] | TGI [10] [µM] | TGI [11] [µM] | TGI [12] [µM] | TGI [13] [µM] | TGI [14] [µM] | TGI [15] [µM] | TGI [16] [µM] | TGI [17] [µM] | TGI [18] [µM] | TGI [19] [µM] | GI50 [18] [µM]
1 | O=[N+]([O-])c1ccc(N/N=C2/CC3=C2CCCCCCCCCC3)c([N+](=O)[O-])c1 | > 100 | > 100 | > 100 | > 100 | > 100 | > 100 | > 100 | > 100 | > 100 | > 100 | > 100 | > 100 | > 100 | > 100 | > 100 | > 100 | > 100 |  |  | 
2 | COc1ccc2c(=O)cc(-c3ccc(OC)c(OC)c3OC)oc2c1 |  | > 100 | > 85.7 |  | > 100 | > 100 | > 100 | > 100 | > 100 | > 100 | > 100 | > 100 | > 100 | > 100 | > 100 | > 100 | > 100 | > 100 | > 100 | 
3 | CC[C@]12C=CCN3CCC4(c5cc([C@@]6(C(=O)OC)CC7CN(CCc8c6[nH]c6ccccc86)C[C@@H]6CCCC[C@H]76)c(OC)cc5N(C)C4[C@](O)(C(=O)OC)C1OC(C)=O)[C@@H]32 (stereo partly specified) |  | 14.4 |  |  |  | > 100 | < 0.01 | 0.0886 | < 0.01 |  | 17.1 | 18.1 | 16 | 21.8 | < 0.01 |  | 17.8 | 16.9 | 12.4 | 0.0672
4 | O=c1[nH]c(=O)n(C2CC(O)C(CO)O2)cc1C(F)(C(F)(F)F)C(F)(F)F (stereo unspecified) | > 100 | > 100 | > 100 |  |  | > 100 | > 100 |  |  | > 100 | > 100 | > 100 | > 100 | > 100 | > 100 | > 100 | > 100 | > 100 | > 100 | 
5 | CC(C)(C)C1CCC2c3c([nH]c4ccccc34)C3C(=O)N(c4ccccc4Cl)C(=O)C3C2C1 (stereo unspecified) | 52.6 | 32.5 |  |  | > 100 | > 100 |  | 44 | 28 | 57.2 |  | > 100 | 22.7 | 51.3 | 50.6 | > 100 | 45.4 | 0.739 | 28.5 | 
6 | CCOC(=O)C1=C(C)NC2=C(C(=O)N(c3ccccc3)C2c2ccccc2)C1c1ccccc1 (stereo unspecified) |  | 33.4 | 33.7 |  |  | 56.2 | 25.9 |  |  |  | 34.8 |  | 47.5 | 45.2 | 29.3 | 40.2 | 26.7 | 25.8 | 34.4 | 
7 | CC(=O)Nc1ccc(-c2nnc(SCC(=O)Nc3cccc(Cl)c3)o2)cc1 | 34 | 36.2 | 30.8 |  |  | 51.8 | 23.5 |  |  | 33.6 | 33.8 | 39.4 | 28 | 33.9 | 23.2 | 43.6 | 33.9 |  | 26.8 | 
8 | O=c1oc2ccccc2c(O)c1C(c1cnc2ccccc2c1)c1c(O)c2ccccc2oc1=O | > 100 | > 100 | > 100 |  | > 100 | 97.7 | > 100 | > 100 | > 100 |  | > 100 | > 100 | > 100 | > 100 | > 100 | > 100 | 35.4 | 58.6 | > 100 | 
